The values that follow come from patent publication US6287792A, “Drug delivery of antisense oligonucleotides and peptides to tissues in vivo and to cells using avidin-biotin technology” (The Regents of the University of California, priority 1991, dated 2001).

The subject of the test is isolated bovine brain capillaries (uptake of avidin-biotin complex). Nature of the test: uptake of the avidin-biotin complex by isolated bovine brain capillaries in vitro. It is filed as cell-based. Conditions: 50 mM, 23° C., thirty minutes. On the procedure: The in vitro studies were performed with isolated bovine brain capillaries used as an in vitro model of blood brain barrier (BBB) transport (16). […] The modest uptake of radioactivity in the presence of buffer alone represents uptake of [P^32 ] nucleotide or phosphate ion generated by capillary nuclease or phosphatase degradation of the antisense oligonucleotide. All incubations were performed at 23° C. for thirty minutes with brain capillary (about 100 μg protein per flask).

Turning to `CO[C@H]1O[C@H](CO)[C@@H](O)[C@H](O)[C@@H]1O` [α-methylmannoside], the “inhibition of the uptake of the avidin-biotin complex by brain capillaries” value was “no significant inhibition”.
